We go through 19 compounds from patent US10112911B2, “Substituted cyanoguanidines as oral anti-virals” (Abbvie Inc, priority 2012, dated 2018).

Structures can show the parent of a compound that is named as a salt. Where two headings read alike, the source gives them in different places.

For series [1], the system named is RSV (Group A, Long Strain). Put plainly: Cytopathetic effect (CPE) protection antiviral assay, MTT readout. The format is cell-based. As to conditions: human respiratory syncytial virus, HEp-2, 96 h, read-out: RSV EC50. Here is the method:
HEp-2 cells and RSV (Group A, Long Strain) were obtained from the American Type Culture Collection (Manassas, Va.).
A cytopathetic effect (CPE) protection assay was performed to determine the ability of a compound to protect the cells from viral infection and thus the CPE induced by viral infection. 96-Well plates were first seeded with […] per well in Dulbecco's modified Eagle's medium (DMEM) containing 10% fetal bovine serum (FBS). One day after the cells were seeded, they were preincubated with serial dilutions of compounds prepared in 100 μL assay medium (DMEM mixed with F12 medium at a 1:1 ratio, supplemented with 2% FBS and 1 mM sodium pyruvate) for 1 hour at 37° C. 100 μL of assay medium containing 0.2 multiplicity of infection (MOI) of RSV was then added to each well of cells. In addition to wells containing infected cells incubated with compounds, each plate also contained replicates of two kinds of controls: (1) Virus control contained cells infected with 0.2 MOI of RSV in assay medium, (2) Uninfected cell control contained cells incubated with assay medium only. After 4 days of incubation at 37° C., the viability of cells was assessed using MTT (Thiazolyl blue tetrazolium bromide, Sigma). A stock solution of MTT, at a concentration of 4 mg/mL in phosphate-buffered saline, was added to all wells at 25 μL per well. Plates were further incubated for 4 hours, and each well was then treated with 50 μL of a solution containing 20% sodium dodecyl sulfate (SDS) and 0.02 N HCl. After an overnight incubation, the plates were measured on a BioTek® microtiter plate reader at wavelengths of 570 nm and 650 nm. The MTT detection is based on the fact that viable (uninfected) cells can reduce the tetrazolium salts into colored formazan products, which can then be quantitated by spectrometry. Based on the spectrometric absorbance of each sample, the percent of protection from CPE, which is an indicator of protection from viral infection, can be calculated for each compound and the 50% effective concentrations (EC50) can be calculated using a nonlinear regression curve fitting equation provided by the GraphPad Prism® 4 software.
Compounds were tested to determine both their antiviral and toxicity to determine their therapeutic window. Determination of the EC50 and TD50 of these active compounds were repeated one additional time to confirm the window.

Another series relates to HEp-2 cells. The experiment in a line: Cytotoxicity assay (MTT) run in parallel with the antiviral assay. In kind it is cell-based. As to conditions: uninfected HEp-2 cells, 4 days incubation, 50% toxicity dose. Here is the method:
HEp-2 cells and RSV (Group A, Long Strain) were obtained from the American Type Culture Collection (Manassas, Va.). Cytotoxicity of the compounds was determined in experiments done in parallel with the antiviral assays. To do this, 100 μL of assay medium was added to the wells of HEp-2 cells pretreated with 100 μL serially diluted compounds as described above. After 4 days of incubation, the viability of the cells was determined by the MT assay in the same way as detailed in the “Antiviral Assay” method. Results were expressed as 50% toxicity dose (TD50) values. Compounds were tested to determine both their antiviral and toxicity to determine their therapeutic window. Determination of the EC50 and TD50 of these active compounds were repeated one additional time to confirm the window.

The mark [2] stands for this setting: HEp-2 cells, 0.2 MOI RSV, 4 days incubation, protection from CPE (Table 1).
Setting [3] is: HEp-2 cells, 0.2 MOI RSV, 4 days, Table 2, determination repeated to confirm window.

The term EC50 denotes the concentration needed to bring the measured effect to its halfway point. Turning to `Cc1ccccc1N/C(=N/C#N)N1CCN(c2nccnc2C#N)CC1C(C)C` (centres unmarked) [Example 1.1, N′-cyano-4-(3-cyanopyrazin-2-yl)-2-isopropyl-N-(2-methylphenyl)piperazine-1-carboximidamide], the concentration for a half-maximal effect (EC50) in series [1] (setting [2]) and in series [1] (setting [3]) was 890 nM in each case. In the series on HEp-2 cells, the “MTT TD50” value is more than 100 µM.
Regarding `COC(=O)c1cnc(N2CCN(/C(=N\C#N)Nc3ccccc3Cl)C(C(C)C)C2)cn1` (centres unmarked) [Example 1.2, methyl 5-{4-[N-(2-chlorophenyl)-N′-cyanocarbamimidoyl]-3-isopropylpiperazin-1-yl}pyrazine-2-carboxylate], the EC50 in series [1] (setting [2]) and in series [1] (setting [3]) was 1130 nM throughout. In addition, the “MTT TD50” value in the series on HEp-2 cells was more than 100 µM.
On to `Cc1ccccc1N/C(=N/C#N)N1CCN(c2cnc3ccccc3n2)CC1C(C)C` (centres unmarked) [Example 1.3, N′-cyano-2-isopropyl-N-(2-methylphenyl)-4-(quinoxalin-2-yl)piperazine-1-carboximidamide trifluoroacetate], for which the EC50 in series [1] was found to be 250 nM. For the same compound, the “MTT TD50” value with HEp-2 cells is more than 32 µM.
Regarding `Cc1ccccc1N/C(=N/C#N)N1CCN(c2nc3ccccc3o2)CC1C(C)C` (centres unmarked) [Example 1.4, 4-(1,3-benzoxazol-2-yl)-N′-cyano-2-isopropyl-N-(2-methylphenyl)piperazine-1-carboximidamide], the EC50 in series [1] (setting [2]) and in series [1] (setting [3]) was 1140 nM throughout. Further, the “MTT TD50” value in the series with HEp-2 cells is 28.85 µM.
As for `Cc1ccccc1N/C(=N/C#N)N1CCN(c2nc3cccc(Cl)c3o2)CC1C(C)C` (centres unmarked) [Example 1.5, 4-(7-chloro-1,3-benzoxazol-2-yl)-N′-cyano-2-isopropyl-N-(2-methylphenyl)piperazine-1-carboximidamide], the EC50 in series [1] (setting [2]) and in series [1] (setting [3]) was 810 nM each time. Further, in the series with HEp-2 cells, the “MTT TD50” value was more than 10 µM.
Regarding `Cc1ccccc1N/C(=N/C#N)N1CCN(c2nc3ccccc3s2)CC1C(C)C` (centres unmarked) [Example 1.6, 4-(1,3-benzothiazol-2-yl)-N′-cyano-2-isopropyl-N-(2-methylphenyl)piperazine-1-carboximidamide], the EC50 in series [1] (setting [2]) worked out at 1590 nM; in series [1] (setting [3]) it was 1870 nM. Moreover, the “MTT TD50” value in the series on HEp-2 cells is more than 10 µM.
As for `Cc1ccc2oc(N3CCN(/C(=N\C#N)Nc4ccccc4C)C(C(C)C)C3)nc2c1` (centres unmarked) [Example 1.7, N′-cyano-2-isopropyl-4-(5-methyl-1,3-benzoxazol-2-yl)-N-(2-methylphenyl)piperazine-1-carboximidamide], the EC50 in series [1] (setting [2]) and in series [1] (setting [3]) was 830 nM in each case. Besides, the “MTT TD50” value with HEp-2 cells is more than 10 µM.
For `Cc1ccccc1N/C(=N/C#N)N1CCN(c2ncnc3ccccc23)CC1C(C)C` (centres unmarked) [Example 1.8, N′-cyano-2-isopropyl-N-(2-methylphenyl)-4-(quinazolin-4-yl)piperazine-1-carboximidamide], the EC50 in series [1] (setting [2]) came out at 450 nM; in series [1] (setting [3]), 300 nM. In addition, in the series with HEp-2 cells, the “MTT TD50” value was more than 100 µM.
For `Cc1ccccc1N/C(=N/C#N)N1CCN(c2nc3ccccc3[nH]2)CC1C(C)C` (centres unmarked) [Example 1.9, 4-(1H-benzimidazol-2-yl)-N′-cyano-2-isopropyl-N-(2-methylphenyl)piperazine-1-carboximidamide] the same measures were 4090 nM, 4090 nM and more than 100 µM.
In the case of `Cc1ccccc1N/C(=N/C#N)N1CCN(c2nc3ccccc3c(=O)[nH]2)CC1C(C)C` (centres unmarked) [Example 1.10, N′-cyano-2-isopropyl-N-(2-methylphenyl)-4-(4-oxo-3,4-dihydroquinazolin-2-yl)piperazine-1-carboximidamide], the EC50 in series [1] (setting [2]) and in series [1] (setting [3]) was 430 nM in each case. Moreover, the “MTT TD50” value in the series on HEp-2 cells is more than 100 µM.
As to `Cc1ccccc1N/C(=N/C#N)N1CCN(c2ncnc3[nH]ccc23)CC1C(C)C` (centres unmarked) [Example 1.11, N′-cyano-2-isopropyl-N-(2-methylphenyl)-4-(7H-pyrrolo[2,3-d]pyrimidin-4-yl)piperazine-1-carboximidamide], the values for the EC50 in series [1] (setting [2]) and in series [1] (setting [3]) were 1410 nM and 1910 nM, respectively. The “MTT TD50” value in the series on HEp-2 cells is more than 100 µM.
With `Cc1ccccc1N/C(=N/C#N)N1CCN(c2cnc3ccccc3n2)C[C@@H]1C(C)C` [Example 1.13, (2S)—N′-cyano-2-isopropyl-N-(2-methylphenyl)-4-(quinoxalin-2-yl)piperazine-1-carboximidamide trifluoroacetate], the EC50 in series [1] stood at 200 nM. Further, in the series on HEp-2 cells, the “MTT TD50” value was more than 38.6 µM.
As to `CC(C)C1CN(c2cnc3ccccc3n2)CCN1/C(=N\C#N)Nc1ccccc1Cl` (centres unmarked) [Example 1.19, N-(2-chlorophenyl)-N′-cyano-2-isopropyl-4-(quinoxalin-2-yl)piperazine-1-carboximidamide], the EC50 in series [1] (setting [2]) and in series [1] (setting [3]) was 150 nM each time. Also, the “MTT TD50” value with HEp-2 cells is more than 27.49 µM.
Consider `CCC1CN(c2cnc3ccccc3n2)CCN1/C(=N\C#N)Nc1ccccc1C` (centres unmarked) [Example 1.44, N′-cyano-2-ethyl-N-(2-methylphenyl)-4-(quinoxalin-2-yl)piperazine-1-carboximidamide], for which the EC50 in series [1] (setting [2]) and in series [1] (setting [3]) was 120 nM each time. In the series with HEp-2 cells, the “MTT TD50” value amounted to 42.06 µM.
For `Cc1ccccc1N/C(=N/C#N)N1CCN(c2cnc3cc(F)ccc3n2)CC1C(C)C` (centres unmarked) [Example 1.54, N′-cyano-4-(6-fluoroquinoxalin-2-yl)-2-isopropyl-N-(2-methylphenyl)piperazine-1-carboximidamide], the EC50 in series [1] (setting [2]) and in series [1] (setting [3]) was 260 nM in each case. Further, the “MTT TD50” value in the series on HEp-2 cells was more than 29.31 µM.
For `Cc1ccccc1NC(=NC#N)N1CCN(c2cnc3ccccc3n2)CC1` [Example 1.74, N′-cyano-N-(2-methylphenyl)-4-(quinoxalin-2-yl)piperazine-1-carboximidamide], the EC50 in series [1] (setting [2]) was more than 61700 nM.
On the same count and under the same terms, then `Cc1ccccc1N(C)C(=NC#N)N1CCN(c2cnc3ccccc3n2)CC1C(C)C` (centres unmarked) [Example 1.75, N′-cyano-2-isopropyl-N-methyl-N-(2-methylphenyl)-4-(quinoxalin-2-yl)piperazine-1-carboximidamide], with 3400 nM; and `Cc1ccccc1NC(=NC#N)NC(CNc1cnc2ccccc2n1)C(C)C` (centres unmarked) [Example 2.1, 2-cyano-1-(2-methylphenyl)-3-[3-methyl-1-(quinoxalin-2-ylamino)butan-2-yl]guanidine], with more than 10000 nM.
Consider `Cc1ccccc1NC(=NC#N)N1CCN(c2cnc3ccccc3n2)CCC1C(C)C` (centres unmarked) [Example 3.1, N′-cyano-7-isopropyl-N-(2-methylphenyl)-4-(quinoxalin-2-yl)-1,4-diazepane-1-carboximidamide], for which the EC50 in series [1] was more than 32000 nM.
